Key:
[1] = tested on: tyrosine kinase activity; assay: Tyrosine kinase ELISA on extracts of β-APP-transfected DAMI cells mixed with PS-1-transfected DAMI cells; format: cell-based, human
Method: All experiments after those in FIG. 7 (with the exception of FIG. 9a, Panel 4) were carried out with appropriately transfected DAMI cells only. Equal numbers (0.5×10^6/ml) of β-APP-transfected DAMI cells and either PS-1- or PS-2-transfected DAMI cells were mixed gently at room temperature, exactly as described (Dewji and Singer, 1998). In control experiments, DAMI cells transfected with pcDNA3 alone were substituted for the β-APP transfected cells.
At several times between 0 and 20 min after mixing, an aliquot of each cell mixture was rapidly centrifuged, the culture medium was removed, and the cell pellet was suspended in 200 μl of extraction buffer (50 mM Tris, pH 8.0/150 mM NaCl/0.5% Nonidet-P40) containing protease inhibitors (1 mM 4-(2-aminoethyl) benzene sulfonyl fluoride hydrochloride (AEBSF)/1 μg/ml antipain/0.1 μg/ml pepstatin A/0.1 μg/ml leupeptin) and the phosphatase inhibitor sodium orthovanadate (0.1 mM). The mixture was sonicated with three bursts of 20 sec duration and then centrifuged. These extract supernatants were then used for Western blot and ELISA analyses as described below.
ELISAs Protein tyrosine kinase activity was measured by an Enzyme Linked Immunosorbent Assay (ELISA) using a tyrosine kinase assay kit (Upstate Biotechnology). […]

[2] = target: Gαo (Mus musculus, UniProt P18872); assay: 35S-GTPγS incorporation (G-protein activation) in β-APP-only:PS-1-only co-cultures, immunoprecipitation with Gαo antibody K-20; format: cell-based; details: β-APP:PS-1 co-culture, Peptide 1-80 0-3 μM
Sequence of Gαo (P18872 whole entry): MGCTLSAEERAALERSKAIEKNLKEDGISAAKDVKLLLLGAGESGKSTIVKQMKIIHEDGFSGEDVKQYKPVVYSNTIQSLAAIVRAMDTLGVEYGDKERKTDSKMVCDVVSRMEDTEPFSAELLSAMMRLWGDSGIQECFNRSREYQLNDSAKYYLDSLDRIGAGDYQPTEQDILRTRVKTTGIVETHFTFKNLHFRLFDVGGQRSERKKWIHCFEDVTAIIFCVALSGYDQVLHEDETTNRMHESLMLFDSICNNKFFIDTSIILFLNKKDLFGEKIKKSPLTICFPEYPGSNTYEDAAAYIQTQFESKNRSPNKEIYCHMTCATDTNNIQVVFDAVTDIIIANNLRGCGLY
From the text: Two cell types were generated: ES-derived mouse cells (PS-1^−/−; PS-2^−/−) that expressed only small amounts of endogenous β-APP but no PS, were transiently transfected with cDNA for human β-APP to produce cells expressing excess human β-APP over mouse β-APP, and no PS-1 or PS-2 (β-APP-only cells). Embryonic (E18) mouse primary fibroblasts derived from β-APP-null mice, expressing only small amounts of endogenous PS-1 and PS-2, were transfected with cDNAs for human PS-1 to produce cells expressing excess human over mouse PS-1 but no β-APP (PS-1-only cells). […]
Co-cultures of β-APP-only and PS-1-only cells were carried out in the presence and absence of Peptide 1-80 (0-3 μM). ^35S-GTPγS assays were carried out on extracts as a measure of G-protein activation. The Aβ produced in these co-culture extracts was determined by ELISA. […]
^35S-GTPγS Assays: Extract (100 μg of total protein) was mixed with an equal volume of GTPγS Buffer B (50 mM HEPES/NaOH pH 7.4, 40 μM GDP, 50 mM MgCl2, 100 mM NaCl) and reacted with 50 nM ^35S-GTPγS (1250 Ci/mmol, Perkin Elmer, Waltham, Mass.) for 60 min at RT. […] The agarose beads were suspended in scintillation fluid (CytoScint, ICN) (5 ml) and counted in a Beckman Coulter LS 6000 SC scintillation counter for 3 min.

[3] = tested on: Aβ production; assay: ELISA of Aβ produced in β-APP-only:PS-1-only co-culture extracts; format: cell-based, mouse; details: β-APP:PS-1 co-culture, Peptide 1-80 0-3 μM
Method: Co-cultures of β-APP-only and PS-1-only cells were carried out in the presence and absence of Peptide 1-80 (0-3 μM). ^35S-GTPγS assays were carried out on extracts as a measure of G-protein activation. The Aβ produced in these co-culture extracts was determined by ELISA.
ES-derived mouse cells (PS-1^−/−; PS-2^−/−) that expressed only small amounts of endogenous β-APP but no PS, were transiently transfected with cDNA for human β-APP to produce cells expressing excess human β-APP over mouse β-APP, and no PS-1 or PS-2 (β-APP-only cells). Embryonic (E18) mouse primary fibroblasts derived from β-APP-null mice, expressing only small amounts of endogenous PS-1 and PS-2, were transfected with cDNAs for human PS-1 to produce cells expressing excess human over mouse PS-1 but no β-APP (PS-1-only cells). The minigenes were co-transfected with PS-1 in the PS-only APP−/− fibroblasts to inhibit the endogenous mouse Gα under investigation in those cells. PS−/− ES cells were separately transfected with human β-APP cDNA (β-APP only cells) and the two types of cells were co-cultured for 24 hours. Cells were harvested and detergent-buffer extracts of the co-cultures were prepared. Determination of [^35S]GTPγS incorporation in these cultures was carried out in the presence and absence of each minigene: Aliquots each containing 100 μg total protein were reacted with ^35S-GTPγS and immunoprecipitation of each ^35S-GTPγS-treated extract was carried out with antibodies directed to the particular Gα under investigation. Specificity of binding of a particular Gα to PS-1 was established by blocking of GTPγS incorporation in the presence of the specific minigene inhibitor.
Co-culture of β-APP-only with PS-1-only cells was carried out as described above.
ELISA for the production of Aβ1-40 was carried out using sandwich ELISA kits (Biosource).

For `CC(C)(C)n1nc(-c2ccc(Cl)cc2)c2c(N)ncnc21` [PP2], the “tyrosine kinase activity after mixing” value ([1]; 10 nM PP2) was “inhibition”.
With `CO[C@H]1[C@@H](OC)C[C@H](C)[C@@H](OC)C2=CC(=O)C=C(NC(=O)/C(C)=C/C=C\[C@H](OC)[C@@H](OC(N)=O)/C(C)=C/[C@@H]1C)C2=O` [herbimycin A] the “increase in tyrosine kinase activity at 8-10 mins after mixing” value ([1]; 10 μg/ml herbimycin A) was “completely inhibited”.
In the case of “Peptide 1-80: fusion construct of the water-soluble entire 80 amino acid NH2-terminal domain of PS-1”, the “G-protein (Gαo) activation, 35S-GTPγS assay” value [2] is reported as “inhibited by Peptide 1-80 in a dose-dependent manner” and the “Aβ production by ELISA” value [3] is reported as “inhibited by Peptide 1-80 in a dose-dependent manner”.

Reference: patent publication US10774121B2, “Methods and compositions for treating neurodegenerative disorders and Alzheimer's Disease and improving normal memory” (The Regents of the University of California, priority 2006, dated 2020)
